From ChEMBL document CHEMBL4184112, “Spiroorthoester group-containing pregnane glycosides from the root barks of Periploca chrysantha and their inhibitory activities against the proliferation of B and T lymphocytes” (Bioorg Med Chem Lett, 2018)

How the values were obtained:
[1] = Selectivity index, ratio of CC50 for lymphocytes (unknown origin) to IC50 for LPS-induced B lymphocytes (unknown origin) proliferation; assay type: toxicity; details: read-out: Ratio CC50/IC50
[2] = Selectivity index, ratio of CC50 for lymphocytes (unknown origin) to IC50 for ConA-induced T lymphocytes (unknown origin) proliferation; assay type: toxicity; details: read-out: Ratio CC50/IC50
[3] = Cytotoxicity against lymphocytes (unknown origin) assessed as decrease in cell viability; assay type: cell-based, Lymphocyte
[4] = Inhibition of LPS-induced B lymphocytes (unknown origin) proliferation; assay type: functional
[5] = system: T-cell; test: Inhibition of ConA-induced T lymphocytes (unknown origin) proliferation; assay type: functional, cell-based

Row | SMILES | selectivity ratio [1] | selectivity ratio [2] | CC50 [3] | IC50 [4] | IC50 [5]
1 | CO[C@H]1[C@@H](O)[C@@H](C)O[C@@H](O[C@H]2[C@@H](OC)C[C@H](O[C@H]3[C@@H](OC)C[C@H](O[C@H]4[C@@H](O)C[C@H](O[C@@H]5[C@@H](C)O[C@@]6(C[C@H]5OC)OCO[C@@H]5C[C@H](O[C@@H](C)[C@@]7(O)CC[C@H]8[C@@H]9CC=C%10C[C@@H](O)CC[C@]%10(C)[C@H]9CC[C@@]87C)O[C@H](C)[C@H]5O6)O[C@@H]4C)O[C@@H]3C)O[C@@H]2C)[C@@H]1O | > 267 | > 426 | > 200 µM | 750 nM | 470 nM
2 | CO[C@H]1[C@@H](O)[C@@H](C)O[C@@H](O[C@H]2[C@@H](OC)C[C@H](O[C@H]3[C@H](O)C[C@H](O[C@H]4[C@@H](OC)C[C@H](O[C@@H]5[C@@H](C)O[C@@]6(C[C@H]5OC)OCO[C@@H]5C[C@H](O[C@@H](C)[C@@]7(O)CC[C@H]8[C@@H]9CC=C%10C[C@@H](O)CC[C@]%10(C)[C@H]9CC[C@@]87C)O[C@H](C)[C@H]5O6)O[C@@H]4C)O[C@@H]3C)O[C@@H]2C)[C@@H]1OC(C)=O | 110 | 706 | 124 µM | 1130 nM | 180 nM
3 | CO[C@H]1C[C@H](O[C@H]2[C@@H](OC)C[C@H](O[C@H]3[C@H](O)C[C@H](O[C@H]4[C@@H](O)C[C@H](O[C@@H]5[C@@H](C)O[C@@]6(C[C@H]5OC)OCO[C@@H]5C[C@H](O[C@@H](C)[C@@]7(O)CC[C@H]8[C@@H]9CC=C%10C[C@@H](O)CC[C@]%10(C)[C@H]9CC[C@@]87C)O[C@H](C)[C@H]5O6)O[C@@H]4C)O[C@@H]3C)O[C@@H]2C)O[C@H](C)[C@H]1OC(C)=O | > 145 | > 136 | > 200 µM | 1740 nM | 1470 nM
4 | CO[C@H]1[C@@H](O)[C@@H](C)O[C@@H](O[C@H]2[C@@H](OC)C[C@H](O[C@H]3[C@@H](OC)C[C@H](O[C@H]4[C@@H](OC)C[C@H](O[C@@H]5[C@@H](C)O[C@@]6(C[C@H]5OC)OCO[C@@H]5C[C@H](O[C@@H](C)[C@@]7(O)CC[C@H]8[C@@H]9CC=C%10C[C@@H](OC=O)CC[C@]%10(C)[C@H]9CC[C@@]87C)O[C@H](C)[C@H]5O6)O[C@@H]4C)O[C@@H]3C)O[C@@H]2C)[C@@H]1O | 170 | 347 | 146 µM | 860 nM | 420 nM
